This note sets out measurements from ChEMBL document CHEMBL1131152, “In vitro and in vivo activities of oligodeoxynucleotide-based thrombin inhibitors containing neutral formacetal linkages” (J Med Chem, 1998).

The assay deals with Prothrombin (Homo sapiens) (UniProt P00734). The experiment in a line: Relative prothrombin time was determined as the activity of the test ODN (oligodeoxynucleotide) relative to that of GS-522.

In turn, `Cc1cn([C@H]2C[C@H](OP(=O)(O)OC[C@H]3O[C@@H](n4cnc5c(=O)nc(N)[nH]c54)C[C@@H]3OP(=O)(O)OC[C@H]3O[C@@H](n4cnc5c(=O)[nH]c(=N)[nH]c54)C[C@@H]3OP(=O)(O)OC[C@H]3O[C@@H](n4cc(C)c(=O)[nH]c4=O)C[C@@H]3OP(=O)(O)OC[C@H]3O[C@@H](n4cnc5c(=O)nc(N)[nH]c54)C[C@@H]3OP(=O)(O)OC[C@H]3O[C@@H](n4cc(C)c(=O)[nH]c4=O)C[C@@H]3OP(=O)(O)OC[C@H]3O[C@@H](n4cnc5c(=O)nc(N)[nH]c54)C[C@@H]3OCOC[C@H]3O[C@@H](n4cnc5c(=O)[nH]c(=N)[nH]c54)C[C@@H]3OP(=O)(O)OC[C@H]3O[C@@H](n4cc(C)c(=O)[nH]c4=O)C[C@@H]3OP(=O)(O)OC[C@H]3O[C@@H](n4cc(C)c(=O)[nH]c4=O)C[C@@H]3OP(=O)(O)OC[C@H]3O[C@@H](n4cnc5c(=O)[nH]c(=N)[nH]c54)C[C@@H]3OP(=O)(O)OC[C@H]3O[C@@H](n4cnc5c(=O)nc(N)[nH]c54)C[C@@H]3O)[C@@H](COP(=O)(O)O[C@H]3C[C@H](n4cc(C)c(=O)[nH]c4=O)O[C@@H]3COP(=O)(O)O[C@H]3C[C@H](n4cnc5c(=O)nc(N)[nH]c54)O[C@@H]3COCO[C@H]3C[C@H](n4cnc5c(=O)nc(N)[nH]c54)O[C@@H]3COP(=O)(O)O)O2)c(=O)[nH]c1=O` came in with a Relative PT of 0.7.
In turn, `Cc1cn([C@H]2C[C@H](OCOC[C@H]3O[C@@H](n4cnc5c(=O)nc(N)[nH]c54)C[C@@H]3OP(=O)(O)OC[C@H]3O[C@@H](n4cnc5c(=O)[nH]c(=N)[nH]c54)C[C@@H]3OP(=O)(O)OC[C@H]3O[C@@H](n4cc(C)c(=O)[nH]c4=O)C[C@@H]3OP(=O)(O)OC[C@H]3O[C@@H](n4cnc5c(=O)[nH]c(=N)[nH]c54)C[C@@H]3OP(=O)(O)OC[C@H]3O[C@@H](n4cc(C)c(=O)[nH]c4=O)C[C@@H]3OP(=O)(O)OC[C@H]3O[C@@H](n4cnc5c(=O)nc(N)[nH]c54)C[C@@H]3OP(=O)(O)OC[C@H]3O[C@@H](n4cnc5c(=O)[nH]c(=N)[nH]c54)C[C@@H]3OP(=O)(O)OC[C@H]3O[C@@H](n4cc(C)c(=O)[nH]c4=O)C[C@@H]3OP(=O)(O)OC[C@H]3O[C@@H](n4cc(C)c(=O)[nH]c4=O)C[C@@H]3OP(=O)(O)OC[C@H]3O[C@@H](n4cnc5c(=O)[nH]c(=N)[nH]c54)C[C@@H]3OP(=O)(O)OC[C@H]3O[C@@H](n4cnc5c(=O)nc(N)[nH]c54)C[C@@H]3O)[C@@H](COP(=O)(O)O[C@H]3C[C@H](n4cc(C)c(=O)[nH]c4=O)O[C@@H]3COP(=O)(O)O[C@H]3C[C@H](n4cnc5c(=O)nc(N)[nH]c54)O[C@@H]3COP(=O)(O)O[C@H]3C[C@H](n4cnc5c(=O)nc(N)[nH]c54)O[C@@H]3COP(=O)(O)O)O2)c(=O)[nH]c1=O` registered a Relative PT of 0.7.
